Source: BigSolDB 2.1

CCO.C[C@H]1c2cccc(O)c2C(O)=C2C(=O)[C@]3(O)C(O)=C(C(N)=O)C(=O)[C@@H](N(C)C)[C@@H]3[C@@H](O)[C@@H]21.C[C@H]1c2cccc(O)c2C(O)=C2C(=O)[C@]3(O)C(O)=C(C(N)=O)C(=O)[C@@H](N(C)C)[C@@H]3[C@@H](O)[C@@H]21.Cl.Cl.O
Details	solubility (mole fraction)
in ethanol, 278.15 K	0.00199
in ethanol, 283.15 K	0.00222
in ethanol, 288.15 K	0.00248
in ethanol, 293.15 K	0.00278
in ethanol, 298.15 K	0.00313
in ethanol, 302.85 K	0.00327
in ethanol, 307.25 K	0.00364
in ethanol, 312.95 K	0.00409
in ethanol, 318.15 K	0.0047
in ethanol, 323.05 K	0.00522
in methanol, 278.15 K	0.0138
in methanol, 283.15 K	0.015
in methanol, 288.15 K	0.016
in methanol, 293.15 K	0.0174
in methanol, 298.15 K	0.0198
in methanol, 302.85 K	0.0251
in methanol, 307.25 K	0.0292
in methanol, 312.95 K	0.0332
in methanol, 318.15 K	0.0402
in methanol, 323.05 K	0.044
in n-propanol, 278.15 K	0.000862
in n-propanol, 283.15 K	0.00101
in n-propanol, 288.15 K	0.00111
in n-propanol, 293.15 K	0.00133
in n-propanol, 298.15 K	0.00151
in n-propanol, 303.15 K	0.00174
in n-propanol, 309.75 K	0.00222
in n-propanol, 316.65 K	0.00273
in n-propanol, 322.55 K	0.00351
in water, 277.55 K	0.00128
in water, 283.05 K	0.00132
in water, 287.85 K	0.0014
in water, 292.95 K	0.00164
in water, 299.15 K	0.00214
in water, 302.35 K	0.00254
in water, 307.45 K	0.00306
in water, 313.25 K	0.00405
in water, 317.85 K	0.00534
in water, 323.05 K	0.00647
